This note sets out measurements from US11576896B2, “Benzoselenophene-based compounds, pharmaceutical compositions and antibody-drug conjugates including the same” (AIMED BIO INC., priority 2020, dated 2023).

The test system of assay [1] is ovarian cancer cells SK-OV-3. Nature of the assay: High-throughput screening (HTS) cytotoxicity, ATPlite assay. It counts as cell-based. More on the design: AUC (area under the curve): unit not given beside the values. To be noted: for IC50: Homo sapiens. As for the experimental part: (§1) The present inventors used an HTS system capable of screening various drugs or substances at once to further screen cytotoxicity of DS-26 (Example 1) and DS-28 (Comparative Example 1). Gastric cancer cells NCI-N87 and ovarian cancer cells SK-OV-3 were separately seeded in a 384-well and treated with drugs at various concentrations and cultured for 72 hours. Then, the degree of cell growth was measured by ATPlite assay. The measured data were converted into IC50 using GraphPad Prism 5.0 software, and area under the curve (AUC) was converted to analyze the titer of each drug.
(§2) Also, DS-26 has stable solubility and stability in terms of chemical structure and thus considered worthy to be developed into drugs.
In general terms: Cellular ATP, detected with luciferase, serves as a proxy for viable cell number.

The subject of assay [2] is Gastric cancer cells NCI-N87. The description is as above. It counts as cell-based. Also noted: AUC (area under the curve): unit not given beside the values. Particulars: NCI-N87 (HER+), 384-well, 72 hours; for IC50: Homo sapiens. As for the experimental part:
as §1, §2

The mark [3] stands for this setting: SK-OV-3 (HER+), 384-well, 72 hours, ATPlite, read-out: IC50.
[4] abbreviates: SK-OV-3 (HER+), 384-well, 72 hours, ATPlite.

Read-outs that look alike come from different tables or passages of the source.

The IC50 is the midpoint of a concentration-inhibition curve. As to `COCCOCCOCCOCCOc1cc2[se]c(C(=O)N3C[C@@H](CCl)c4c3cc(O)c3ccc(OC)cc43)cc2cc1NC(C)=O` [DS-28, reference compound], the IC50 in assay [1] (setting [3]) stood at 1.68 nM; in assay [2], 5.86 nM. The “AUC (area under the curve)” value in assay [1] (setting [4]) is on record as 613; in assay [2], 689.

Regarding `COc1ccc2c(O)cc3c(c2c1)[C@H](CCl)CN3C(=O)c1cc2cc(NC(=O)CCN(C)C)ccc2[se]1` [DS-26, (S)—N-(2-(1-(chloromethyl)-5-hydroxy-8-methoxy-2,3-dihydro-1H-benzo[e]indole-3-carbonyl)benzo[b]selenophen-5-yl)-3-(dimethylamino)propanamide], the IC50 was 0.042 nM in assay [1] (setting [3]); 0.04 to 0.05 nM in assay [1] (text summary of Table 1 and FIGS. 2A-3B, cell line not specified (NCI-N87 and SK-OV-3 tested), read-out: IC50 (text summary of HTS result)); 0.00555 nM in assay [2]. The “AUC (area under the curve)” value is 481 in assay [1] (setting [4]) and 477 in assay [2].
